Data taken from US20100210534A1, “USE OF A PEPTIDE AS A THERAPEUTIC AGENT” (priority 2007, published 2010).
No end group written: not given here.

Key:
HCMV strain AD169 = experiment: HCMV plaque formation assay in MRC-5 cells; details: for inhibition of HCMV plaque formation as compared to the virus control: 10 micrograms per ml, 7-10 days
HIV-1IIIB = experiment: HIV-1 antiviral assay in CEM-SS cells (MTS readout of virus-induced cell killing); format: cell-based
HUVEC = experiment: Endothelial tube formation assay; details: 10 micrograms per ml, 20 hours, combination peptide 1: peptide 2 0.95 mole: 1.05 mole
Procedure: The endothelial tube formation assay is based on the ability of endothelial cells to form three-dimensional capillary-like tubular structures when cultured on a gel of basement membrane extract. […] Pre-labeled HUVEC with Calcein AM were seeded in a 96-well culture plate coated with extracellular metrix (Chemicon international Cat. ECM625) and treated with test peptides—10 micrograms per ml—in full growth medium. Positive control was vehicle only. The endothelial cells were allowed to form tubes foe 20 hours and were then examined under an inverted fluorescent microscope. Duplicate wells for each treatment were photographed and quantitatevily analyzed for an average tubule length using image analysis software ImageProPlus. Raw data were expressed as average tubule lenghs in pixels±standard deviation. Statistic p values were computed using the Student's t-test.

[1] = test system: hepatitis B virus (HBV) ayw strain; experiment: HBV assay in HepG2-2.2.15 cells (secreted HBV DNA by TaqMan PCR); format: cell-based; details: 10 micrograms per ml, six days, HBV DNA in supernatant
[2] = test system: spleen cells of Ovalbumin-immunized Balb/c mice; experiment: Th1/Th2 cytokine profiling assay (Ovalbumin-restimulated spleen cells, CBA kit); details: 10 micrograms per ml; Ovalbumin restimulation, 72 hours
Source text: The Balb/c mice (originated in 1923, it is a popular strain and is used in many different research disciplines. Also classified as an inbred from the production of 20 or more successive brother-sister matings, the Balb/c mouse is albino and small in size) were immunized on Days 1, 15, and 29 with Ovalbumin (Ovalbumin is the main protein found in egg white, commonly used to stimulate an immunological reaction in test animals) in PBS (5 micrograms/injection). On day 50, spleens of the mice were harvested (3 weeks after last boost with Ovalbumin). […] Thereafter, additional Ovalbumin was added to the cells at 10 micrograms/ml for in vitro restimulation of the cells. 72 hours later, cell supernatants were harvested and assayed using the Becton Dickinson Mouse Th1/Th2 Cytokine CBA Kit.

[3] = test system: Primary Human endothelial cells (HUVEC); experiment: Endothelial cell migration assay; details: 10 micrograms per ml, 22 hours, combination peptide 1: peptide 2 0.95 mole: 1.05 mole
Procedure: Primary Human endothelial cells (HUVEC) were seeded in insert chambers with 3 micrometer pore size of multi-transwell plate for 6 hours at 37° C. in Endothelial Cell Basal Medium (EBM) supplemented with 0.1% bovine serum albumin. Thereafter, designated concentration of testing peptides—10 micrograms per ml—was added in duplicate wells. The endothelia were allowed to migrate for 22 hours at 37° C., then, migrated cells were fixed and stained with Hoechst 33342 dye. Images of 3 fields per insert were taken and the number of migrated cells per field were quantified using the ImageProPlus software. Data were analyzed for the average number of the migrated cells and standard deviation of six data points for each treatment condition. […] Statistic p values were computed using the Student's t-test.

Compound | antiviral activity of positive control compound (HCMV) (HCMV strain AD169; positive control, HCMV AD169) | antiviral activity of positive control compounds (HIV-1) (HIV-1IIIB) | inhibition of HCMV plaque formation as compared to the virus control (HCMV strain AD169) | inhibition of the tube formation endothelial cells (HUVEC) | inhibition of HBV replication as compared to the virus control infection [1] [%] | IFNγ spleen cells; TH1 response (% of control) [2] | IL-2 spleen cells (% of control) [2] | IL-4 spleen cells; TH2 response (% of control) [2] | IL-5 spleen cells; TH2 response (% of control) [2] | TNF-a spleen cells; TH1 response (% of control) [2] | inhibition of the migration of human endothelial cells [3]
Nc1nc(O)c2ncn(COC(CO)CO)c2n1 [Ganciclovir, reference compound] | expected levels of antiviral activity |  |  |  |  |  |  |  |  |  | 
Cc1cn([C@H]2C[C@H](N=[N+]=[N-])[C@@H](CO)O2)c(=O)[nH]c1=O [AZT] |  | expected levels of antiviral activity |  |  |  |  |  |  |  |  | 
Arg-Val-Tyr-Ile-His-Pro-Phe-OH (RVYIHPF-OH) [Peptide 2] |  |  | did not inhibit | 3% | 44.1 | 126.8 % of control | 119.1 % of control | 117.2 % of control | 69.6 % of control | 106.3 % of control | did not inhibit
CC(C)(C)NC(=O)[C@@H]1CN(Cc2cccnc2)CCN1C[C@@H](O)C[C@@H](Cc1ccccc1)C(=O)N[C@H]1c2ccccc2C[C@H]1O [indinavir] |  | expected levels of antiviral activity |  |  |  |  |  |  |  |  | 
Ala-Ala-Val-Ala-Leu-Leu-Pro-Ala-Val-Leu-Leu-Ala-Leu-Leu-Ala-Pro-Val-Gln-Arg-Lys-Arg-Gln-Lys-Leu-Met-Pro-OH (AAVALLPAVLLALLAPVQRKRQKLMP-OH) [Peptide 1] |  |  | did not inhibit | did not inhibit | 40.7 | 63.7 % of control | 153.6 % of control | 118.2 % of control | 74.6 % of control | 108.5 % of control | did not inhibit
